Assay results reported in paper PMC5218480 (PLoS ONE, 2017).

System: MV-4-11 cells
Experiment: Gene expression microarray analysis (Affymetrix PrimeView) and GSEA
Type: cell-based, human
Parameters: RFU PODN (11730768_x_at) / Fold change /veh PODN (11730768_x_at) / RFU LINC00158 (11744669_a_at) / Fold change /veh LINC00158 (11744669_a_at) / RFU DUSP10 (11751237_a_at) / Fold change /veh DUSP10 (11751237_a_at) / RFU ID3 (11757404_x_at) / Fold change /veh ID3 (11757404_x_at) / RFU PLEKHG5 (11737974_s_at) / Fold change /veh PLEKHG5 (11737974_s_at) / RFU LRRC4B (11730491_at) / Fold change /veh LRRC4B (11730491_at) / RFU GIMAP4 (11747438_a_at) / Fold change /veh GIMAP4 (11747438_a_at) / RFU KRT8 (11758183_x_at) / Fold change /veh KRT8 (11758183_x_at) / RFU CNN1 (11734310_a_at) / Fold change /veh CNN1 (11734310_a_at) / RFU VPS37D (11726825_at) / Fold change /veh VPS37D (11726825_at) / RFU C10orf10 (11716522_x_at) / Fold change /veh C10orf10 (11716522_x_at) / RFU KIR2DL2 /// KIR2DL4 /// KIR2DL5A /// KIR2DL5B /// KIR2DS1 /// KIR2DS2 /// KIR2DS3 /// KIR2DS4 /// KIR3DL3 /// KIR3DL3 /// KIR3DS1 (11738374_at) / Fold change /veh KIR2DL2 /// KIR2DL4 /// KIR2DL5A /// KIR2DL5B /// KIR2DS1 /// KIR2DS2 /// KIR2DS3 /// KIR2DS4 /// KIR3DL3 /// KIR3DL3 /// KIR3DS1 (11738374_at) / RFU C1QL1 (11718748_at) / Fold change /veh C1QL1 (11718748_at) / RFU TMPRSS4 (11747572_a_at) / Fold change /veh TMPRSS4 (11747572_a_at) / RFU HAMP (11756126_x_at) / Fold change /veh HAMP (11756126_x_at) / RFU RNFT2 (11725882_a_at) / Fold change /veh RNFT2 (11725882_a_at) / RFU NR4A2 (11747474_a_at) / Fold change /veh NR4A2 (11747474_a_at) / RFU ABCC12 (11746883_a_at) / Fold change /veh ABCC12 (11746883_a_at) / RFU TMEM136 (11760407_x_at) / Fold change /veh TMEM136 (11760407_x_at) / RFU CLDN22 /// WWC2 (11732394_at) / Fold change /veh CLDN22 /// WWC2 (11732394_at) / RFU HLA-DPB1 (11760878_x_at) / Fold change /veh HLA-DPB1 (11760878_x_at) / RFU SPINT1 (11716480_a_at) / Fold change /veh SPINT1 (11716480_a_at) / RFU GAP43 (11754022_s_at) / Fold change /veh GAP43 (11754022_s_at) / RFU A4GNT (11735810_at) / Fold change /veh A4GNT (11735810_at) / RFU PRB3 (11715151_x_at) / Fold change /veh PRB3 (11715151_x_at) / RFU TUBB4B (11761932_at) / Fold change /veh TUBB4B (11761932_at) / RFU CAPN14 (11732068_a_at) / Fold change /veh CAPN14 (11732068_a_at) / RFU TMCC2 (11721928_a_at) / Fold change /veh TMCC2 (11721928_a_at) / RFU IRGQ (11745062_a_at) / Fold change /veh IRGQ (11745062_a_at) / RFU FAM174B (11720279_a_at) / Fold change /veh FAM174B (11720279_a_at) / RFU TMPRSS4 (11748680_a_at) / Fold change /veh TMPRSS4 (11748680_a_at) / RFU FAM212B (11763350_a_at) / Fold change /veh FAM212B (11763350_a_at) / RFU PLEKHG5 (11743358_a_at) / Fold change /veh PLEKHG5 (11743358_a_at) / RFU ZSCAN30 (11745921_a_at) / Fold change /veh ZSCAN30 (11745921_a_at) / RFU CMKLR1 (11741424_a_at) / Fold change /veh CMKLR1 (11741424_a_at) / RFU LOC101060620 /// MAPK8IP1 (11723275_at) / Fold change /veh LOC101060620 /// MAPK8IP1 (11723275_at) / RFU SPTSSB (11747773_x_at) / Fold change /veh SPTSSB (11747773_x_at) / RFU PRSS12 (11739890_at) / Fold change /veh PRSS12 (11739890_at) / RFU BIN1 (11741810_x_at) / Fold change /veh BIN1 (11741810_x_at) / RFU WNT11 (11732464_a_at) / Fold change /veh WNT11 (11732464_a_at) / RFU C10orf10 (11716521_a_at) / Fold change /veh C10orf10 (11716521_a_at) / RFU C5orf56 (11738089_at) / Fold change /veh C5orf56 (11738089_at) / RFU CYB561 (11721691_x_at) / Fold change /veh CYB561 (11721691_x_at) / RFU ANKRD19P (11752326_a_at) / Fold change /veh ANKRD19P (11752326_a_at) / RFU OR2T12 /// OR2T33 /// OR2T8 (11738714_s_at) / Fold change /veh OR2T12 /// OR2T33 /// OR2T8 (11738714_s_at) / RFU VCAN (11748164_a_at) / Fold change /veh VCAN (11748164_a_at) / RFU JSRP1 (11732532_at) / Fold change /veh JSRP1 (11732532_at) / RFU KRTAP10-11 (11738290_x_at) / Fold change /veh KRTAP10-11 (11738290_x_at) / RFU MYO3A (11730013_a_at) / Fold change /veh MYO3A (11730013_a_at) / RFU EBF3 (11725865_a_at) / Fold change /veh EBF3 (11725865_a_at) / RFU CAMK2N1 (11719241_x_at) / Fold change /veh CAMK2N1 (11719241_x_at) / RFU C5orf56 (11738088_a_at) / Fold change /veh C5orf56 (11738088_a_at) / RFU OLFML3 (11715873_a_at) / Fold change /veh OLFML3 (11715873_a_at) / RFU LOC100653217 /// NTM (11731650_a_at) / Fold change /veh LOC100653217 /// NTM (11731650_a_at) / RFU MAPK11 (11762145_a_at) / Fold change /veh MAPK11 (11762145_a_at) / RFU FIZ1 (11724087_x_at) / Fold change /veh FIZ1 (11724087_x_at) / RFU OASL (11726364_x_at) / Fold change /veh OASL (11726364_x_at) / RFU SOX15 (11748057_x_at) / Fold change /veh SOX15 (11748057_x_at) / RFU CD79A (11719716_a_at) / Fold change /veh CD79A (11719716_a_at) / RFU HIST1H1D (11736915_at) / Fold change /veh HIST1H1D (11736915_at) / RFU CASKIN2 (11723855_a_at) / Fold change /veh CASKIN2 (11723855_a_at) / RFU LOC730098 (11760151_x_at) / Fold change /veh LOC730098 (11760151_x_at) / RFU OR4N2 (11742367_at) / Fold change /veh OR4N2 (11742367_at) / RFU PRRT2 (11749266_a_at) / Fold change /veh PRRT2 (11749266_a_at) / RFU SNX32 (11753110_a_at) / Fold change /veh SNX32 (11753110_a_at) / RFU CDHR5 (11726645_a_at) / Fold change /veh CDHR5 (11726645_a_at) / RFU RCAN1 (11760418_a_at) / Fold change /veh RCAN1 (11760418_a_at) / RFU FAM167A (11723789_a_at) / Fold change /veh FAM167A (11723789_a_at) / RFU FAM26E (11764081_at) / Fold change /veh FAM26E (11764081_at) / RFU ISYNA1 (11749810_s_at) / Fold change /veh ISYNA1 (11749810_s_at) / RFU ACY1 (11761880_at) / Fold change /veh ACY1 (11761880_at) / RFU 11764098_at / Fold change /veh 11764098_at / RFU SAMD14 (11745864_x_at) / Fold change /veh SAMD14 (11745864_x_at) / RFU NPB (11741838_a_at) / Fold change /veh NPB (11741838_a_at) / RFU TMPRSS6 (11731388_a_at) / Fold change /veh TMPRSS6 (11731388_a_at) / RFU KRTAP10-2 (11738614_at) / Fold change /veh KRTAP10-2 (11738614_at) / RFU ARHGAP8 /// PRR5-ARHGAP8 (11727945_x_at) / Fold change /veh ARHGAP8 /// PRR5-ARHGAP8 (11727945_x_at) / RFU KRTAP5-7 /// NADSYN1 (11734609_at) / Fold change /veh KRTAP5-7 /// NADSYN1 (11734609_at) / RFU RASL12 (11751679_a_at) / Fold change /veh RASL12 (11751679_a_at) / RFU CDKN2B (11736163_a_at) / Fold change /veh CDKN2B (11736163_a_at) / RFU PRF1 (11729649_at) / Fold change /veh PRF1 (11729649_at) / RFU, ZNF638 /// ZNF638-IT1 / Fold change vs veh, ZNF638 /// ZNF638-IT1 / RFU, PANK3 / Fold change vs veh, PANK3 / RFU, SH3YL1 / Fold change vs veh, SH3YL1 / RFU, ZEB2 / Fold change vs veh, ZEB2 / RFU, NRIP1 / Fold change vs veh, NRIP1 / RFU, PTTG1IP / Fold change vs veh, PTTG1IP / RFU, CAPN2 / Fold change vs veh, CAPN2 / RFU, MED14 / Fold change vs veh, MED14 / RFU, SNORA58 / Fold change vs veh, SNORA58 / RFU, C1orf63 / Fold change vs veh, C1orf63 / RFU, LRRFIP1 / Fold change vs veh, LRRFIP1 / RFU, NDUFAF7 / Fold change vs veh, NDUFAF7 / RFU, SLC12A2 / Fold change vs veh, SLC12A2 / RFU, IBTK / Fold change vs veh, IBTK / RFU, ESF1 / Fold change vs veh, ESF1 / Fold change vs veh, TMEM50B / RFU, TAOK1 / Fold change vs veh, TAOK1 / RFU, ACBD3 / Fold change vs veh, ACBD3 / RFU, TMA16 / Fold change vs veh, TMA16 / RFU, RWDD3 / Fold change vs veh, RWDD3 / RFU, BCAT1 / Fold change vs veh, BCAT1 / RFU, EDEM3 / Fold change vs veh, EDEM3 / RFU, TMEM33 / Fold change vs veh, TMEM33 / RFU, WDR75 / Fold change vs veh, WDR75 / RFU, AHCTF1 / Fold change vs veh, AHCTF1 / RFU, TFRC / Fold change vs veh, TFRC / RFU, ZDHHC17 / Fold change vs veh, ZDHHC17 / RFU, NOM1 / Fold change vs veh, NOM1 / RFU, ARL8B / Fold change vs veh, ARL8B / RFU, ZBTB11 / Fold change vs veh, ZBTB11 / RFU, TAMM41 / Fold change vs veh, TAMM41 / RFU, KIAA1704 /// LOC100996395 / Fold change vs veh, KIAA1704 /// LOC100996395 / RFU, ING1 / Fold change vs veh, ING1 / RFU, TRMT61B / Fold change vs veh, TRMT61B / RFU, FUBP3 / Fold change vs veh, FUBP3 / RFU, TP53 / Fold change vs veh, TP53 / RFU, TNKS2 / Fold change vs veh, TNKS2 / RFU, ZFP14 / Fold change vs veh, ZFP14 / RFU, ACTR2 / Fold change vs veh, ACTR2 / RFU, PPP3R1 / Fold change vs veh, PPP3R1 / RFU, PIK3R1 / Fold change vs veh, PIK3R1 / RFU, HNRNPA1 / Fold change vs veh, HNRNPA1 / RFU, RNF170 / Fold change vs veh, RNF170 / RFU, ZNF28 / Fold change vs veh, ZNF28 / RFU, RNGTT / Fold change vs veh, RNGTT / RFU, OGT / Fold change vs veh, OGT / RFU, BRD1 / Fold change vs veh, BRD1 / RFU, MARS / Fold change vs veh, MARS / RFU, ZNF655 / Fold change vs veh, ZNF655 / RFU, FAHD1 / Fold change vs veh, FAHD1 / RFU, BDP1 / Fold change vs veh, BDP1 / RFU, LRRCC1 / Fold change vs veh, LRRCC1 / RFU, ARID1A / Fold change vs veh, ARID1A / RFU, ZNF146 / Fold change vs veh, ZNF146 / RFU, ZNF330 / Fold change vs veh, ZNF330 / RFU, GPN3 / Fold change vs veh, GPN3 / RFU, C9orf123 / Fold change vs veh, C9orf123 / RFU, N4BP2L2 / Fold change vs veh, N4BP2L2 / RFU, ARFIP1 / Fold change vs veh, ARFIP1 / RFU, FAM179B / Fold change vs veh, FAM179B / RFU, BCL10 / Fold change vs veh, BCL10 / RFU, UHRF1BP1L / Fold change vs veh, UHRF1BP1L / RFU, BET1 / Fold change vs veh, BET1 / RFU, CNOT2 / Fold change vs veh, CNOT2 / RFU, ZNF268 / Fold change vs veh, ZNF268 / Fold change vs veh, ZNF507 / RFU, DGCR2 / Fold change vs veh, DGCR2 / RFU, WDSUB1 / Fold change vs veh, WDSUB1 / Fold change vs veh, HSP90B1 /// MIR3652 / RFU, ADSS / Fold change vs veh, ADSS / RFU, GK / Fold change vs veh, GK / RFU, ZNF148 / Fold change vs veh, ZNF148 / RFU, TAF9 / Fold change vs veh, TAF9 / RFU, SLC1A5 / Fold change vs veh, SLC1A5 / RFU, SLMO2 / Fold change vs veh, SLMO2 / RFU, ABCC4 / Fold change vs veh, ABCC4 / RFU, LOC101060439 /// RAP1B / Fold change vs veh, LOC101060439 /// RAP1B / RFU, RFX7 / Fold change vs veh, RFX7 / RFU, GTPBP10 / Fold change vs veh, GTPBP10 / RFU, CNEP1R1 / Fold change vs veh, CNEP1R1 / RFU, BIVM-ERCC5 /// ERCC5 / Fold change vs veh, BIVM-ERCC5 /// ERCC5 / RFU, ILF3 / Fold change vs veh, ILF3 / RFU 11762660_at / Fold change /veh 11762660_at / RFU VCAN (11757783_s_at) / Fold change /veh VCAN (11757783_s_at) / RFU DDX43 (11728927_at) / Fold change /veh DDX43 (11728927_at) / RFU KRT8 (11758188_x_at) / Fold change /veh KRT8 (11758188_x_at) / RFU NKD1 (11759106_at) / Fold change /veh NKD1 (11759106_at) / RFU SRD5A1 (11742802_a_at) / Fold change /veh SRD5A1 (11742802_a_at) / RFU TPSAB1 /// TPSB2 (11721975_s_at) / Fold change /veh TPSAB1 /// TPSB2 (11721975_s_at) / RFU GSTM3 (11746129_a_at) / Fold change /veh GSTM3 (11746129_a_at) / RFU IL23R (11737362_x_at) / Fold change /veh IL23R (11737362_x_at) / RFU TMEM51 (11727254_a_at) / Fold change /veh TMEM51 (11727254_a_at) / RFU PIWIL2 (11732686_x_at) / Fold change /veh PIWIL2 (11732686_x_at) / RFU ORM1 (11744905_x_at) / Fold change /veh ORM1 (11744905_x_at) / RFU CCDC152 (11743942_at) / Fold change /veh CCDC152 (11743942_at) / RFU ECM1 (11717891_a_at) / Fold change /veh ECM1 (11717891_a_at) / RFU IL23R (11748794_a_at) / Fold change /veh IL23R (11748794_a_at) / RFU TNFAIP8L3 (11732012_x_at) / Fold change /veh TNFAIP8L3 (11732012_x_at) / RFU MBOAT4 (11741988_at) / Fold change /veh MBOAT4 (11741988_at) / RFU 11764193_at / Fold change /veh 11764193_at / RFU TMEM53 (11763286_at) / Fold change /veh TMEM53 (11763286_at) / RFU MAGEB2 (11727129_at) / Fold change /veh MAGEB2 (11727129_at) / RFU TMEM200A (11744735_a_at) / Fold change /veh TMEM200A (11744735_a_at) / RFU CCDC152 (11751479_a_at) / Fold change /veh CCDC152 (11751479_a_at) / RFU FAM211A (11726209_a_at) / Fold change /veh FAM211A (11726209_a_at) / RFU RGS16 (11746705_a_at) / Fold change /veh RGS16 (11746705_a_at) / RFU VCAN (11755009_s_at) / Fold change /veh VCAN (11755009_s_at) / RFU RHOB (11743442_s_at) / Fold change /veh RHOB (11743442_s_at) / RFU RGS16 (11720943_a_at) / Fold change /veh RGS16 (11720943_a_at) / RFU RGS16 (11720944_at) / Fold change /veh RGS16 (11720944_at) / RFU, VPS4B / Fold change vs veh, VPS4B / RFU, CREB1 / Fold change vs veh, CREB1 / RFU, DNAJC13 / Fold change vs veh, DNAJC13 / RFU, GNAQ / Fold change vs veh, GNAQ / RFU, CDK5R1 / Fold change vs veh, CDK5R1 / RFU, ZRANB3 / Fold change vs veh, ZRANB3 / RFU, CUL4A / Fold change vs veh, CUL4A / RFU, CCNY / Fold change vs veh, CCNY / RFU, UFL1 / Fold change vs veh, UFL1 / RFU, COG3 / Fold change vs veh, COG3 / RFU, DIAPH2 / Fold change vs veh, DIAPH2 / RFU, SKA2 / Fold change vs veh, SKA2 / RFU, AFF3 / Fold change vs veh, AFF3 / RFU, LMF1 / Fold change vs veh, LMF1 / RFU, IPO11 / Fold change vs veh, IPO11 / RFU, DFFB / Fold change vs veh, DFFB / RFU, FOXP1 / Fold change vs veh, FOXP1 / RFU, CARD8 / Fold change vs veh, CARD8 / RFU, STRN3 / Fold change vs veh, STRN3 / RFU, ADK / Fold change vs veh, ADK / RFU, RASSF2 / Fold change vs veh, RASSF2 / RFU, WIPF1 / Fold change vs veh, WIPF1 / RFU, LARP1B / Fold change vs veh, LARP1B / RFU, RASA1 / Fold change vs veh, RASA1 / RFU, RB1 / Fold change vs veh, RB1 / RFU, PPFIA1 / Fold change vs veh, PPFIA1 / RFU, MAT2A / Fold change vs veh, MAT2A / RFU, CCT5 / Fold change vs veh, CCT5 / RFU, WDR92 / Fold change vs veh, WDR92 / RFU, CUX1 / Fold change vs veh, CUX1 / RFU, TTC7A / Fold change vs veh, TTC7A / RFU, TMEM135 / Fold change vs veh, TMEM135 / RFU, DEPTOR / Fold change vs veh, DEPTOR / RFU, CPM / Fold change vs veh, CPM / RFU, DNAJB6 / Fold change vs veh, DNAJB6 / RFU, CACNA2D3 / Fold change vs veh, CACNA2D3 / RFU, DTX4 / Fold change vs veh, DTX4 / RFU, TFCP2 / Fold change vs veh, TFCP2 / RFU, GMCL1 /// GMCL1P1 / Fold change vs veh, GMCL1 /// GMCL1P1 / RFU, AEBP2 / Fold change vs veh, AEBP2 / RFU, SNHG1 /// SNORD22 /// SNORD25 /// SNORD26 /// SNORD27 /// SNORD28 /// SNORD29 /// SNORD31 / Fold change vs veh, SNHG1 /// SNORD22 /// SNORD25 /// SNORD26 /// SNORD27 /// SNORD28 /// SNORD29 /// SNORD31 / Fold change (Aza/veh), C12orf56 (ProbeSet 11735607_a_at) / Fold change (ACY-1035/veh), C12orf56 (ProbeSet 11735607_a_at) / Fold change (Aza/veh), FGFR1OP (ProbeSet 11751329_s_at) / Fold change (ACY-1035/veh), FGFR1OP (ProbeSet 11751329_s_at) / Fold change (Aza/veh), VPS36 (ProbeSet 11739960_a_at) / Fold change (ACY-1035/veh), VPS36 (ProbeSet 11739960_a_at) / RFU SYPL1 (11715823_x_at) / Fold change /veh SYPL1 (11715823_x_at) / RFU IGFBP7 (11715501_s_at) / Fold change /veh IGFBP7 (11715501_s_at) / RFU REEP3 (11722064_at) / Fold change /veh REEP3 (11722064_at) / RFU IGLL1 (11728026_x_at) / Fold change /veh IGLL1 (11728026_x_at): dose or concentration left out as unconfirmed
Conditions: ProbeSet 11739263_x_at; LIST D

Compound: Nc1ccc(-c2cccs2)cc1NC(=O)c1ccc2c(c1)cc(C1CC1)n2CCN1CCOCC1 [ACY-1035]
- Fold change vs veh, VPS4B: 0.95
